# From patent US8465983B1, “Detection and delivery systems utilizing supported lipid bilayers” (priority 2005, dated 2013)
# How the values were obtained:
# [1] = system: DMPG lipid bilayer supported on MS-PPE; test: Superquenching flow cytometric assay for disruption of DMPG lipid bilayer supported on MS-PPE; format: biochemical; settings: for quenching of the MS-PPE after addition of peptide / association constant with DMPG (reciprocal of the point of half saturation): 10 μM AQS; for quenching of the MS-PPE after addition of peptide: sMLT 3.8 μM, nMLT 1.6 μM, TRITON X-100 0.25% (w/v); for association constant with DMPG (reciprocal of the point of half saturation): binding curves, flow cytometry
# Method: Lipid bilayers were disrupted by adding TRITON X-100 detergent to the bead suspension to a final concentration of 0.25% (w/v).
# Bead suspensions of 2.5×10^5 DMPG-coated MS-PPE in 200 μL of PBS were analyzed using a FACScan flow cytometer (Becton-Dickinson, Sunnyvale, Calif.) with excitation at 488 nm. Fluorescence signals were acquired on FL-1 channel (525 nm) using log amplification and analyzed with the CellQuest software. Kinetic analysis of disruption of supported lipid bilayer by melittin was performed by acquiring real-time data with continuous mixing of samples (10^6 MS-PPE in 800 μl of PBS) using a magnetic stirrer. The raw data were analyzed using IDL Query software developed by Bruce Edwards (Cancer Center, University of New Mexico, Albuquerque, N. Mex.).
# Because an anionic lipid was used to form a lipid bilayer around MS-PPE, it was expected that MLT will disrupt the DMPG lipid bilayer by such a detergent-like action. This was tested by adding 10 μM AQS to DMPG-coated MS-PPE followed by treatment with one of the following: TRITON X-100 detergent, synthetic MLT (sMLT), or natural MLT (nMLT) and immediately reading the fluorescence by flow cytometry. […] These histograms resemble the ones reported previously for MS-PPE, without a lipid coating, in absence and in presence of AQS.
# From FIG. 18, the association constant (corresponding to the reciprocal of the point of half saturation) for nMLT and sMLT with DMPG were 5×10^6 M^−1 and 1.7×10^6 M^−1, respectively. […] Lower concentrations of nMLT, in comparison to sMLT, were required to disrupt the DMPG lipid bilayer. This might be attributed to the fact that nMLT contains some phospholipase A2 (PLA2) as a contaminant. PLA2 has a high affinity for anionic phospholipids, with an association constant of 0.5×10^10 M^−1 (Kim et al., Anal. Chem. 250, 109-116 (1997)), which is about 3000 fold higher than that of MLT. Although PLA2 activity requires calcium, which is not present in the experimental system, it has been reported that even upon addition of EDTA to natural MLT, PLA2 maintains its activity, probably due to formation of a tight complex with calcium with PLA2 (Dempsey, C. E. Biochim. Biophys. Acta 1990, 1031, 143-161).
# The kinetics of disruption of supported lipid bilayer by MLT were monitored by measuring real-time changes in fluorescence intensity by flow cytometry (FIG. 19). Suspensions of 10^6 DMPG-coated MS-PPE in 800 μL of PBS were treated with AQS at a final concentration of 10 μM, then with either sMLT, TRITON X-100 detergent, or no treatment. […] Treatment with sMLT in the absence of AQS led to an increase in normalized fluorescence (FIG. 19, trace A). This can be attributed to disruption of the lipid bilayer by sMLT, and is consistent with a reversal of the slight quenching of fluorescence caused by the formation of a DMPG lipid bilayer over MS-PPE. Addition of AQS alone to DMPG-coated MS-PPE (FIG. 19, trace C) led to a 20% reduction in fluorescence as reported earlier. Addition of TRITON X-100 detergent to DMPG-coated MS-PPE after the addition of AQS (first dip in trace E, FIG. 19) caused immediate decrease in fluorescence to ˜10% of its original value (second dip in trace E, FIG. 19). In contrast, addition of sMLT, after the addition of AQS, (FIG. 19, trace D) led to a gradual reduction of fluorescence intensity to ˜20% of the original value. Although MLT forms dimers at high concentrations (Dempsey, C. E. Biochim. Biophys. Acta 1990, 1031, 143-161), it is monomeric at the concentrations used in this study. On the other hand, TRITON X-100 detergent forms micelles at the concentration used in this study.
# [2] = Lipid bilayers on MS-PPE as barriers to superquenching by AQS, flow cytometry; settings: 10 μM AQS
# Method: FIG. 15 graphically illustrates flow cytometric evaluations of different lipids that involved formation of supported lipid bilayers on MS-PPE for the purpose of forming a barrier to quenching by AQS. Lipids tested were 2 mM DPPC, 1 mM egg-PC, and 2 mM DMPG. Fluorescence was normalized to that of MS-PPE without lipids and in absence of AQS. −AQS and +AQS refer to absence and presence of 10 μM AQS. The errors bars represent SD of means of normalized histograms obtained for triplicates.
# Small unilamellar vesicles (SUVs) were prepared using a 2 mM solution of DPPC, 1 mM egg-PC, or 2 mM DMPG in chloroform. The lipid was dried by nitrogen gas followed by vacuum. The dried lipid was resuspended in phosphate buffer saline (PBS), pH 7.4, and incubated at 37° C. for 10 min, then sonicated to optical clarity in a sonication bath (Branson Cleaning Equipment Co., Shelton, Conn.).
# Lipid bilayers were assembled on microspheres as previously described (Buranda et al. Langmuir 19:1654-1663 (2003); Bayerl & Bloom, Biophys J 58:357-362 (1990)). […]
# Bead suspensions of 2.5×10^5 PPE-coated microspheres in 200 μL PBS were analyzed using a FACScan flow cytometer (Becton-Dickinson, Sunnyvale, Calif.) with excitation at 488 nm. Fluorescence signals were acquired on the FL-1 channel (525 nm) using log amplification and analyzed with the CellQuest software.
# [3] = system: 80:20 (molar ratio) DMPG and DMPC bilayer on porous silica beads; test: Suspension study: melittin on DMPG/DMPC 80:20 bilayers on fluorescein-containing porous beads; format: biochemical; settings: 220 μM melittin (FIG. 6 legend prints 220 pM), 25° C.
# Method: (§1) Experimental procedures were similar to the TRITON X-100 detergent based analysis. For experiments with α-toxin, three different toxin concentrations: 15, 45 and 250 μg/mL were used at 37° C. and 25° C. Beads coated with EPC were used. In the experiments with melittin, 220 μM melittin was used with beads coated with either 100% EPC, 10:90 (molar ratio) mixture of DMPG and EPC or an 80:20 mixture of DMPG and DMPC. All melittin experiments were conducted at 25° C.
# In view of the results shown in FIG. 5, the effects of melittin on other mixtures of lipids were examined. […] A 80:20 mixture (molar ratio) of DMPG and DMPC was used to form the lipid bilayers used in this experiment. The increase in fluorescence intensity due to the membrane-melittin interaction, which results in the release of dye from porous beads was about 10 fold. Although this release was not as high as that observed when using TRITON X-100 detergent, it is notable in comparison to the release with α-toxin.
# [4] = system: 90:10 (molar ratio) EPC and DMPG bilayer on porous silica beads; test: Suspension study: melittin on EPC/DMPG 90:10 bilayers on fluorescein-containing porous beads; format: biochemical; settings: highly concentrated melittin, 25° C.
# Method: as §1
# The interaction of highly concentrated melittin solutions was examined with membranes supported on fluorescein containing porous beads, where the membranes contained 100% EPC or a 90:10 mixture (molar ratio) of EPC and DMPG (a negatively charged lipid). […] In the absence of peptide, the amount of dye leakage from the EPC/DMPG beads was similar to that for EPC coated beads.
# [5] = system: EPC lipid bilayer on porous silica beads; test: Suspension study: disruption of EPC bilayers on fluorescein-containing porous silica beads, release of dye into supernatant; format: biochemical; settings: all three concentrations 15, 45 and 250 μg/mL
# Method: Lipid coatings on beads were disrupted using 10% TRITON X-100 detergent. Each sample in micro-centrifuge tubes contained 5 mg of lipid bilayer coated, fluorescein entrapped beads in 200 μL of Tris buffer. Samples were centrifuged and 100 μL aliquots of supernatant were mixed with either 100 μL of Tris buffer or 100 μL of 10% TRITON X-100 detergent in separate centrifuge tubes. The fluorescence intensity of each mixture was immediately (time=0) recorded. Each mixture was mixed with its respective bead sample in centrifuge tube and incubated at 25° C. in the dark. After 30 min, samples were centrifuged and fluorescent intensity of the supernatants was measured. Beads were resuspended in their respective supernatants. Fluorescence intensity was again measured at 90 and 150 min.
# as §1
# Previous suspension studies on disruption of lipid bilayers have been performed with small unilamellar vesicles where disruption of the lipid bilayer membranes was detected by monitoring the unquenching of a highly concentrated, encapsulated dye. In the present work disruption was monitored via release of fluorescein dye from porous beads, by measuring the increase in fluorescence intensity of the supernatant at 520 nm. Beads were first suspended in Tris buffer containing the disruptor. After selected time periods, beads were sedimented by centrifuging and a portion of the supernatant was taken for the measurement. The measured portion was added back to the bead sample to permit continuous monitoring. The scattering effect that was present in vesicle based studies was minimized by measuring only the supernatant after centrifugation of the beads.
# [6] = system: supported lipid bilayer surrounding a porous bead that contains fluorescein; test: Kinetics of supported lipid bilayer disruption by α-toxin, pH gradient, flow cytometry; format: biochemical
# Source text: FIGS. 4A-B illustrates the effects of alpha-toxin on lipid bilayer integrity. FIG. 4A graphically illustrates dose-dependent release of fluorescent dye from a lipid bilayer coated microbead after introduction of different concentrations of alpha-toxin, a membrane-associated pore-forming protein from Staphylococcus aureus. The normalized fluorescence intensity (at 520 nm) of the supernatant is plotted versus time for EPC-coated, fluorescein filled porous beads when using different concentrations of α-toxin added. 10% Triton was added after 150 min. FIG. 4B illustrates the kinetics of disrupting a supported lipid bilayer by α-toxin as monitored by recording changes in fluorescence intensity every 2 minutes by flow cytometry. The lipid bilayer surrounded a porous bead that contains a pH-reactive molecule (fluorescein), and the pH outside the beads was adjusted to 11.0, whereas inside the beads the pH was 2.6. As illustrated, increasing amounts of c′-toxin increases the fluorescence emitted from within the beads.
# In another experiment a lipid bilayer surrounding a porous bead that contains a pH-reactive molecule (fluorescein) was exposed to α-toxin. The pH outside the beads was adjusted to 11.0, whereas inside the beads the pH was 2.6. The kinetics of disruption of supported lipid bilayer by α-toxin were monitored by recording changes in fluorescence intensity every 2 minutes by flow cytometry. For the first 8 minutes there was no significant change in fluorescence intensity (FIG. 4B). However, after 8 minutes there was a gradual increase in fluorescence intensity (FIG. 4B) resulting from insertion of α-toxin into the supported lipid bilayer thus forming channels permeable to hydrogen cations and hydroxyl ions, which reduces the difference in the pH outside and inside the microspheres. […] This can be attributed to insertion of many α-toxin channels at this high concentration leading to disruption of the lipid bilayer and immediate equilibration of the pH inside and outside the porous microspheres.
molecule,measurement,setting,value
"nMLT: natural melittin from Sigma, contains some phospholipase A2 as a contaminant",quenching of the MS-PPE after addition of peptide,[1],comparable to that occurring on addition of TRITON X-100 detergent
same,association constant with DMPG (reciprocal of the point of half saturation),[1],5e+06 M⁻¹
"CCCCCCCCCCCCCCCC(=O)OC[C@H](COP(=O)([O-])OCC[N+](C)(C)C)OC(=O)CCCCCCCCCCCCCCC [DPPC, 1,2-dipalmitoyl-sn-glycero-3-phosphatidylcholine]",fluorescence with quencher relative to MS-PPE and quencher without the lipid,[2],~10 fold
same,reduction (quenching) of polymer fluorescence of lipid-coated MS-PPE on addition of AQS,[2],~40%
CC[C@H](C)[C@H](NC(=O)CN)C(=O)NCC(=O)N[C@@H](C)C(=O)N[C@H](C(=O)N[C@@H](CC(C)C)C(=O)N[C@@H](CCCCN)C(=O)N[C@H](C(=O)N[C@@H](CC(C)C)C(=O)N[C@H](C(=O)N[C@H](C(=O)NCC(=O)N[C@@H](CC(C)C)C(=O)N1CCC[C@H]1C(=O)N[C@@H](C)C(=O)N[C@@H](CC(C)C)C(=O)N[C@H](C(=O)N[C@@H](CO)C(=O)N[C@@H](Cc1c[nH]c2ccccc12)C(=O)N[C@H](C(=O)N[C@@H](CCCCN)C(=O)N[C@@H](CCCNC(=N)N)C(=O)N[C@@H](CCCCN)C(=O)N[C@@H](CCCNC(=N)N)C(=O)N[C@@H](CCC(N)=O)C(=O)N[C@@H](CCC(N)=O)C(N)=O)[C@@H](C)CC)[C@@H](C)CC)[C@@H](C)O)[C@@H](C)O)C(C)C)C(C)C [melittin],increase in fluorescence intensity due to release of dye,[3],about 10 fold
same,release of dye from EPC/DMPG coated beads compared with 100% EPC coated beads,[4],slightly higher
sMLT: synthetic melittin obtained from Sigma,quenching of the MS-PPE after addition of peptide,[1],comparable to that occurring on addition of TRITON X-100 detergent
same,"fluorescence intensity after addition, % of original value (real-time kinetics)","[1]; 10^6 DMPG-coated MS-PPE in 800 μL PBS, after 10 μM AQS",~20%
same,association constant with DMPG (reciprocal of the point of half saturation),[1],1.7e+06 M⁻¹
"α-toxin: membrane active pore-forming protein secreted by Staphylococcus aureus, ˜33 kDa",increase in fluorescence intensity after 150 min,[5]; 25° C.,about 3 fold
same,increase in fluorescence intensity after 150 min,[5]; 37° C.,about 6.5 fold
same,concentration at which increase in fluorescence intensity reached its maximum,"[6]; pH 11.0 outside, pH 2.6 inside beads",15 µg/mL
same,time without significant change in fluorescence intensity before gradual increase,"[6]; pH 11.0 outside, pH 2.6 inside beads, read every 2 minutes",8 min
same,change in fluorescence intensity,[6]; α-toxin 45 μg/mL,did not cause a change in fluorescence intensity different from the baseline
